Measurements: article PMC13195669, “GPR3 Ligands Discovered through Combined Virtual and Conformational Biosensor-Based Screening” (Journal of the American Chemical Society, 2026)

What was measured:
GPR3 = biological target: T1, GPR3 (Homo sapiens, UniProt P46089); assay: cAMP GloSensor 22F, GPR3-transfected HEK293A cells; assay type: cell-based; details: read-out: EC50 of cAMP decrease in GPR3-expressing cells
T1 construct: host or cells: HEK293A, transient
Excerpt: (§1) Next, we used the classical cAMP GloSensor technology to assess the target selectivity profile of 33. […] In addition, we tested the effects of 33 on cAMP changes mediated by agonist-stimulated GPCRs phylogenetically close to GPR3 and coupling to Gs or Gi/o proteins. […]
(§2) conditioning and no constraints were applied. The poses were visually inspected and the most favorable one that coincides with the co-solved ligand according to the available structures was chosen.
(§3) Plasmids and molecular cloning
(§4) The H187-EPAC-FRET sensor7 was kindly provided by K. Jalink (The Netherlands Cancer Institute, Amsterdam, The Nether-lands). The BRET-based cAMP sensor CAMYEL8 was kindly provided by Laura Humphrys (University of Regensburg, Regens-burg, Germany). Plasmids encoding the conformational biosensors α2AAR- and β2AR-HaloTag/Nluc9 and the Gs heterotrimer dissociation sensor10 were previously described. The expression plasmid encoding N-terminally HA-tagged GPR3 (cat. no.
(§5) #GPR003TN00) on a pcDNA3.1+ vector was obtained from the cDNA resource center (cdna.org). The Nluc and HaloTag in-serts were amplified with overhanging restriction sites from β2AAR- HaloTag/Nluc and ligated to the full-length C-terminus or inserted into icl3 of GPR3, respectively, to obtain the conformational biosensor GPR3-HaloTag/Nluc. […]

GPR6 = biological target: T2, GPR6 (Homo sapiens, UniProt P46095); assay: cAMP GloSensor 22F, GPR6-transfected HEK293A cells; assay type: cell-based
T2 construct: expressed in transfected cells; host or cells: HEK293A, transient
T2 sequence (P46095 whole entry, species assumed): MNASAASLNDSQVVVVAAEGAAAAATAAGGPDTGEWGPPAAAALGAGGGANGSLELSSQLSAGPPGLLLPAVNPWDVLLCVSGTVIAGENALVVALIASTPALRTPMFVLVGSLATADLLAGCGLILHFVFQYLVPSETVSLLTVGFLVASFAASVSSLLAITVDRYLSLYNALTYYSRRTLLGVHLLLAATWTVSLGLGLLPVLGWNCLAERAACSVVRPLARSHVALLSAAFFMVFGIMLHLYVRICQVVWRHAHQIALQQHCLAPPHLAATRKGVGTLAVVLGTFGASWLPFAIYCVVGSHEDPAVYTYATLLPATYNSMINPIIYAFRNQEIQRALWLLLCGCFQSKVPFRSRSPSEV
Excerpt: as §1, §2, §3, §4, §5

T1 sequence (P46089 whole entry): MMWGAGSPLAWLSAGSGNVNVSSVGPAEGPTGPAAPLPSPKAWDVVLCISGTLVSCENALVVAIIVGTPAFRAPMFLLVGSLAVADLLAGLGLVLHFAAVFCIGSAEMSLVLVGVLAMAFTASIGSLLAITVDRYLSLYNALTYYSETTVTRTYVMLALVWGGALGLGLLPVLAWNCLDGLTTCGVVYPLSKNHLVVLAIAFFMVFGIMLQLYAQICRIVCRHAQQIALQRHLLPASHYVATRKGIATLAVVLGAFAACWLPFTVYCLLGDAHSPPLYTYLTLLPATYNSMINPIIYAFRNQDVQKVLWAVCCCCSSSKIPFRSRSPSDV

EC50 (GPR3): 2 µM
Compound: N=c1n(Cc2ccccc2)c2ccccc2n1CC1CC1 [compound 33]
receptor-specific change in cAMP, GPR6 (GPR6): no receptor-specific changes in cAMP levels below 100 μM
